Results: patent publication US20090196833A1, “COMPOSITIONS COMPRISING TOPICAL DPD INHIBITORS AND METHODS OF USING SAME IN THE TREATMENT OF HAND-FOOT SYNDROME” (ADHEREX TECHNOLOGIES INC., priority 2008, published 2009)
Where two headings read alike, the source gives them in different places. One block for each molecule: values may come before it.

Columns and labels:
[1] = tested on: Thymidine phosphorylase (TP); test: Thymidine phosphorylase (TP) enzyme activity in skin sample supernatant; details: concentration of 100 uM; 200 μM capecitabine substrate
Experimental: Skin samples were suspended in 600 μl of homogenization buffer containing 20 mM potassium phosphate (pH 8.0), 1.5 mM dithiothreitol (DTT), and 5 ul/ml protease inhibitor (Sigma). Samples were homogenized and centrifuged at 36,000 rpm for one hour at 4° C. The supernatants were collected and protein concentration was measured using the Bradford assay (Biorad). Thymidine phosporylase (TP) enzyme activity was determined in an assay mixture containing 20 mM potassium phosphate (pH 8.0), 1 mM DTT, 1 mM EDTA, 2 μM 6-^3H-Capecitabine (Moravek Biochemicals, Brea, Calif.), 200 μM unlabeled Capecitabine, varying concentrations of the inhibitor (100 μM, 10 μM, or 1 μM), and 80 μl of protein (6.0 mg/ml) in a final volume of 160 μl. Reactions were incubated at 37° C. for 30 minutes and then terminated by boiling for four minutes. To facilitate protein precipitation, the reactions were incubated at −80° C. for at least 20 minutes, thawed, and then centrifuged for 10 minutes at 14000 rpm at 4° C. The resulting supernatants were filtered through a 0.2 μm Acrodisc filter (VWR International, West Chester, Pa.) and samples were injected in duplicate (60 μl each) onto a HPLC (Hewlett-Packard 1050, Houston, Tex.) equipped with an automatic injector and on-line radioisotope flow detector (Radiomatic FLO-ONE Beta, Packard Instrument, Meriden, Conn.). […]

[2] = 5-FU pharmacokinetics in pigs with topical eniluracil (Example 6); type: in vivo; details: pig, plasma, 6 mg/kg, 5-FU 6 mg/kg bolus, read-out: 5-FU Half-Life, Mean (SD)
Experimental: (§1) This study was carried out to determine the plasma pharmacokinetics of eniluracil (EU) after topical administration and to evaluate the effect of topical eniluracil application on 5-FU pharmacokinetics, peripheral blood mononuclear cell (PBMC) dihydropyrimidine dehydrogenase (DPD) function, and levels of DPD activity in the skin in vivo. Eniluracil (0.005% and 0.01% w/w) formulated using Aquaphor® was applied topically (617 mg to a designated area) for 5 minutes every other day for 16 days starting on Day-2. 5-Fluorouracil was administered as a 6 mg/kg bolus injection on Day-3, Day 0 and Day 14. Samples were collected at predetermined time intervals to evaluate 5-fluorouracil pharmacokinetics, eniluracil pharmacokinetics, skin DPD activity and systemic DPD activity.
(§2) A baseline 5-FU pharmacokinetic study was conducted on Day-3 by collecting serial blood samples after 5-FU administration. […] The total ointment applied was […]. The area of application in the pig ([…]=0.0040 m^2) was selected based on feasibility and scale to the proposed human use using the following figures: the surface area of one palm and one sole combined in a human is 2% of the total body surface area, the average total body surface area in a pig is 0.40 m^2. Thus, in terms of total eniluracil in mg/m^2 applied to pigs was 0.154 for 0.01% and 0.077 for 0.005%. The duration of application was 5 minutes, which was determined based data obtained from a pilot study. In this study, higher doses of topical eniluracil (5 gms of 0.01%, 0.05% and 0.01% w/w) and placebo were applied on the skin and skin biopsies were collected after predefined time intervals. These samples were then analyzed for DPD activity.
(§3) Ointment exposure time was 5 minutes every other day for 16 days. Eniluracil treated animals also received 617 mg of placebo at a site different from the treatment site. Eniluracil pharmacokinetics were analyzed from the serial blood samples drawn on first day of the 5-FU and eniluracil treatment (Day 0) and on Day 14. In addition, eniluracil concentrations were evaluated in all samples obtained for 5-FU pharmacokinetics, as shown above. 5-FU pharmacokinetics were evaluated from 11 serial blood samples drawn after the IV bolus administration of 5-FU on Day-3, Day 0 and Day 14. On 5-FU treatment days, eniluracil administration was conducted first (5 min) followed by 5-FU at the 6 minute time point. Blood samples were collected for plasma EU analyses prior to topical administration and at 2 min and 5 min (end of topical exposure). Blood samples were collected for both EU and 5-FU analyses immediately prior to 5-FU administration and at the following times from the IV bolus: 2, 5, 10, 15, 30, 45, 60, 90 120, and 180 min. Determinations of eniluracil and 5-fluorouracil plasma pharmacokinetics were made. The effect on the local DPD activity and the effect of topical eniluracil on systemic DPD activity were assessed by collecting skin biopsies from both the treatment site and the placebo site, and peripheral blood mononuclear cells (PBMCs) on day-2 and on day 12. DPD activity in PBMCs was also measured on Day 17 and Day 19, to investigate the time to recovery if there was any systemic inhibition of DPD.
In terms of statistical considerations, the study was designed with 4 pigs to a treatment group in order to have 80% power for observation of at least a 40% difference in 5-FU systemic exposure between measurements conducted on day-3 (no eniluracil) to day 14 (on eniluracil every other day since day-2) at each of the two dosing levels (4 animals per dose level). These evaluations were conducted using matched, paired T Tests and Wilcoxon tests. In addition, day 14 data were compared between the treatment vs. control groups using the Kiruskal-Wallis test. […]

[3] = tested on: EpiDerm™ skin model (normal, human-derived epidermal keratinocytes (NHEK)); test: EpiDerm skin model MTT conversion assay (ET50, dermal irritation); type: cell-based; details: for ET50: exposure times 8, 20, 24 hours
Text: The EpiDerm™ skin model system (MatTek) was used to assess the potential dermal irritation of eniluracil alone or its formulation. This system consists of normal, human-derived epidermal keratinocytes (NHEK) which have been cultured to form a multilayered, highly differentiated model of the human epidermis. […] The EpiDerm™ system is mitotically and metabolically active. Markers of mature epidermis-specific differentiation such as pro-filaggrin, the K1/K10 cytokeratin pair, involucrin, and type I epidermal transglutaminase have been localized in the model. […] Eniluracil was prepared and administered to the test system at the three final concentrations of 1000 μM, 500 μM, and 100 μM, and tested at three exposure times of 8, 20, and 24 hours. The DMSO solvent control was tested at exposure times of 8 and 24 hours. The negative control was tested at exposure times of 4 and 24 hours, and the positive control was tested at exposure times of 4 and 8 hours. […] Hydrochloric acid in an amount equivalent to the sodium hydroxide was added to neutralize the ointment. The exposure time control was also exposed in duplicate for 4 and 24 hours. Table 2 below summarizes the ET50 results of the EpiDerm™ assay for the test articles and the positive control, using the negative control results to determine the relative viability.

[4] = pH of test article in the EpiDerm studies; type: physicochemical
[5] = Plasma eniluracil after topical administration in pigs (Example 6); type: in vivo
Experimental: as §1, §2
as §3, with “On 5-FU treatment days, eniluracil administration was conducted first (5 min) followed by 5-FU at the 6 minute time point. Blood samples were collected for plasma EU analyses prior to topical administration and at 2 min and 5 min (end of topical exposure). Blood samples were collected for both EU and 5-FU analyses immediately prior to 5-FU administration and at the following times from the IV bolus: 2, 5, 10, 15, 30, 45, 60, 90 120, and 180 min. Determinations of eniluracil and 5-fluorouracil plasma pharmacokinetics were made.” left out

[6] = target: T1, dihydropyrimidine dehydrogenase (DPD) (Sus scrofa, UniProt Q28943); test: Skin DPD activity in pigs with topical eniluracil (Example 6); type: in vivo; details: short term topical application at 0.005% or 0.01% w/w
T1 construct: the supernatant (cytosolic fraction) was collected for use as the enzyme source; from tissue; host or cells: pig skin biopsies after topical dosing in vivo
T1 sequence (Q28943 4-1025): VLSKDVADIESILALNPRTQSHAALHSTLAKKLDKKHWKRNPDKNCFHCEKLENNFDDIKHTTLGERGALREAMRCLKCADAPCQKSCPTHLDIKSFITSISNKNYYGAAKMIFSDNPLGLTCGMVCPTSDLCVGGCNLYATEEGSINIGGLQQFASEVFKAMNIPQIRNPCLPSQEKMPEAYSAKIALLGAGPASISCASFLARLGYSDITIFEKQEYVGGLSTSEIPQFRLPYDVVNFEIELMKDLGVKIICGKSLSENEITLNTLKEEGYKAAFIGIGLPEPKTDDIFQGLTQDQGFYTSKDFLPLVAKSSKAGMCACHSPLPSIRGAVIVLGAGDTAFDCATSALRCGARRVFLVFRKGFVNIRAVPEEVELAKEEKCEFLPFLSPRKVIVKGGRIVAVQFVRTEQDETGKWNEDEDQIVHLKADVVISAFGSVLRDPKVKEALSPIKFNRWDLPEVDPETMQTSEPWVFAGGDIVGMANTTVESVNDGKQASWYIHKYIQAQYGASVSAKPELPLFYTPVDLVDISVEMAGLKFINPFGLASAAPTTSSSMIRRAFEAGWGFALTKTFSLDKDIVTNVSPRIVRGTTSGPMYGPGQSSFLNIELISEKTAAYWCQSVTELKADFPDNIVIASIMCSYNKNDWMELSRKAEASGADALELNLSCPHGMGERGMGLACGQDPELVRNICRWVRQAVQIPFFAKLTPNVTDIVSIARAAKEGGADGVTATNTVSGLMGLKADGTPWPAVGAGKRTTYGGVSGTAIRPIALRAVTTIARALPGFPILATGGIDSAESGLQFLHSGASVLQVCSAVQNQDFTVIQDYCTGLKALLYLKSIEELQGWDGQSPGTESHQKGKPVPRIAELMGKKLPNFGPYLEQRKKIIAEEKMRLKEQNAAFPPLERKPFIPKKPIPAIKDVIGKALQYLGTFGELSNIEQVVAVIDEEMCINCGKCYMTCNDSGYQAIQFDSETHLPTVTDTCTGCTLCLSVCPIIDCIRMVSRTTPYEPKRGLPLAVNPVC
Experimental: as §1, with “Samples were collected at predetermined time intervals to evaluate 5-fluorouracil pharmacokinetics, eniluracil pharmacokinetics, skin DPD activity and systemic DPD activity.” left out
A baseline 5-FU pharmacokinetic study was conducted on Day-3 by collecting serial blood samples after 5-FU administration. […] The duration of application was 5 minutes, which was determined based data obtained from a pilot study. […] These samples were then analyzed for DPD activity.
Ointment exposure time was 5 minutes every other day for 16 days. […] Eniluracil pharmacokinetics were analyzed from the serial blood samples drawn on first day of the 5-FU and eniluracil treatment (Day 0) and on Day 14. In addition, eniluracil concentrations were evaluated in all samples obtained for 5-FU pharmacokinetics, as shown above. 5-FU pharmacokinetics were evaluated from 11 serial blood samples drawn after the IV bolus administration of 5-FU on Day-3, Day 0 and Day 14. […]

[7] = capecitabine at labeled dose; cited from earlier work

Compound: O=c1ccn([C@@H]2O[C@H](CO)[C@@H](O)[C@H]2O)c(=O)[nH]1 [uridine]
inhibition of TP activity [1]: about 50%

Compound: Cc1cn([C@H]2C[C@H](O)[C@@H](CO)O2)c(=O)[nH]c1=O [thymidine]
inhibition of TP activity [1]: about 50%

half-life ([2]; iv, Both Doses of eniluracil ointment, Day 0): 10.1 min
half-life ([2]; iv, Both Doses of eniluracil ointment, Day 14): 9.77 min
half-life ([2]; iv, Controls (no ointment), Day 0): 7.56 min
half-life ([2]; iv, Controls (no ointment), Day 14): 9.74 min
half-life ([2]; iv, Controls (no ointment), Day −3): 5.51 min
half-life ([2]; iv, eniluracil ointment Dose 0.005%, Day 0): 6.98 min
half-life ([2]; iv, eniluracil ointment Dose 0.005%, Day 14): 6.7 min
half-life ([2]; iv, eniluracil ointment Dose 0.01%, Day 0): 13.2 min
half-life ([2]; iv, eniluracil ointment Dose 0.01%, Day 14): 12.8 min
half-life ([2]; topical or ocular, Both Doses of eniluracil ointment, Day −3 (no topical eniluracil)): 5.11 min
half-life ([2]; topical or ocular, eniluracil ointment Dose 0.005% group, Day −3 (no topical eniluracil)): 5.44 min
half-life ([2]; topical or ocular, eniluracil ointment Dose 0.01% group, Day −3 (no topical eniluracil)): 4.78 min
Compound: O=c1[nH]cc(F)c(=O)[nH]1 [5-FU, 5-Fluorouracil]

pH ([4]; eniluracil 100 uM): 5
pH ([4]; eniluracil 500 uM): 5
pH ([4]; eniluracil 1000 uM): 5
plasma EU concentration ([5]; 221 of the 224 samples, limit of quantitation, topical 0.005% or 0.01% w/w, 5 minutes every other day): ≤ 11 ng/mL
plasma EU concentration ([5]; pig 5303, EU dose 0.005%, day 14, 6 min): 12.81 ng/mL
plasma EU concentration ([5]; pig 5303, EU dose 0.005%, day 14, 11 min): 11.52 ng/mL
plasma EU concentration ([5]; pig 5303, EU dose 0.005%, day 14, 15 min): 11.07 ng/mL
effect on skin DPD activity [6]: temporary and recoverable inhibition
Compound: C#Cc1c[nH]c(=O)[nH]c1=O [Eniluracil, eniluracil]
tolerability in EpiDerm skin model ([3]; 1000, 500 and 100 μM, topical exposures of up to 24 hours): well-tolerated
ET50 ([3]; eniluracil 100 uM): >24 h
ET50 ([3]; eniluracil 500 uM): >24 h
ET50 ([3]; eniluracil 1000 uM): >24 h

Compound: CCCCCOC(=O)Nc1nc(=O)n([C@@H]2O[C@H](C)[C@@H](O)[C@H]2O)cc1F [capecitabine, 5′-deoxy-5-fluoro-N-[(pentyloxy)carbonyl]-cytidine]
reported incidence of HFS, all grades [7]: approximately 60%
reported incidence of HFS, high grade [7]: ~17%
